“Also recorded” adds a separate entry of the source.
Tests used:
[1] = tested on: neonatal rat cardiac myocytes; assay: Growth, morphology and apoptosis of cardiac myocytes; type: cell-based
Method: Cultured neonatal rat cardiac myocytes were known to express high levels of the M6P/IGF2R protein. The effect of RA on the growth of normal, neonatal rat cardiac myocytes was examined.
Cell Isolation and Culture For the photoaffinity labeling experiments, cardiac myocytes were isolated from 1-day-old neonatal Sprague-Dawley rats, using the Neonatal Cardiomyocyte Isolation System (Worthington). The isolated cell were cultured on Petri dishes with culture medium (F-10 nutrient mixture/10% horse serum/5% fetal bovine serum/50 μg/ml streptomycin/50 units/ml penicillin G). Cells were used for experiments after 2-6 days of culture.

neonatal rat fibroblasts = assay: Immunofluorescence of cathepsin B distribution in fibroblasts; type: cell-based; settings: RA 1 μM for 3 h; neonatal rat fibroblasts
From the text: FIGS. 8A and 8B are photomicrographs showing effect of retinoic acid on the distribution of cathepsin B in neonatal rat fibroblasts. […] The enzyme was found mainly in the perinuclear area. […] Bar represents 4 μm.
Since biosynthetic transport of lysosomal enzymes from the TGN to endosomes/lysosomes is mainly mediated by the M6P/IGF2R (Sohar et al., 1998, Biochem. J. 330:903-908), an enhanced trafficking of the receptor should lead to an increased translocation of the M6P-containing lysosomal enzymes from the TGN to lysosomes. To test this, we examined the effect of RA on the intracellular distribution of cathepsin B, a lysosomal protease known to be transported in a M6P-dependent manner in fibroblasts (Hanewinkel et al., 1987, J. Diol. Chem. 262:12351-12355). […] The distribution was similar to that of M6P/IGF2R (shift from perinuclear area to cytoplasmic vesicles throughout the cytoplasm).
(§1) Intracellular Trafficking Materials Retinoic acid was obtained from Sigma Chem. Co. (St. Louis, Mo.). The synthetic retinoids used (AGN193109, TTNPB) were produced by Allergan Inc. (Irvine, Calif.). Stably-transfected P388D1 cells re-expressing the M6P/IGF2R were provided by Dr. William S. Sly (St. Louis University). The rabbit polyclonal antibody against the rat M6P/IGF-II receptor was a gift from Dr. R.G. MacDonald (University of Nebraska). […]

[2] = molecular target: T1, M6P/IGF2R (300 kDa protein) (Rattus norvegicus, UniProt G3V824); assay: [3H]RA photoaffinity labeling of the 300 kDa protein; type: binding; settings: for Inhibition of [3H]RA photolabeling/binding to M6P/IGF2R by nonradioactive competitor: 25- to 50-fold molar excess (50 μM) competitor added before photolysis
T1 construct: about 100 μg of proteins of membrane preparations or serum; from tissue; host or cells: membrane preparations of cultured neonatal Sprague-Dawley rat cardiac myocytes
Method: Photoaffinity Labeling Photoaffinity labeling was performed essentially according to the methods described in Bernstein et al., 1995, Proc. Natl. Acad. Sci. USA 92:654-658. […] After the ethanol has been evaporated with nitrogen, about 100 μg of proteins of membrane preparations or serum [serum proteins were first concentrated using a Biomax-100K Centrifugal Filter Device (Millipore)] were then added to each tube. The final volume was adjusted to 100 μl with 50 mM Tris buffer (pH 7.4) containing protease inhibitors (5 mM EDTA, 5 mM EGTA, 0.1 mM phenylmethylsulfonyl fluoride, 0.05% NaN3, 20 μg/ml aprotinin, 10 μg/ml benzamidine and 12.5 μg/ml chymostatin) and 50 μM butylated hydroxytoluene (a radical scavenger, used to minimize the non-specific labeling) for a final concentration of 1 μM labeled retinoic acid. The samples were incubated at room temperature with agitation for 1 hour in the dark. The samples were exposed to an intense 365-nm UV light source (Model B 100AP, UPland, CA) for 7 min. […] To remove the non-covalently bound ligands, the photolabeled samples were extracted with chloroform/methanol (2:1), or washed once by centrifugation for membrane samples only).
Fluorography The resultant protein pellets were dissolved in SDS sample buffer containing 5% β-mercapto-ethanol and heated at 100° C. for 5 min. These samples were then run on 7% polyacrylamide gels (30:0.2, acrylamide/bisacrylamide ratio), using conventional SDS/PAGE techniques. After electrophoresis, the gels were stained with Coomassie blue, soaked in Amplifier (Amersham, Life Science) for 30 minutes, dried by a vacuum gel dryer and then exposed to Hyperfilm-TM X-ray films (Amersham, Life Science) at […] for 1-3 days.

M6P/IGF2R = M6P/IGF2R (Rattus norvegicus, UniProt G3V824); assay: Immunofluorescence of M6P/IGF2R distribution in fibroblasts; type: cell-based; parameters: endogenous in cells; host or cells: primary neonatal rat cardiac fibroblasts; settings: RA 0.25-1 μM for 2-3 h; neonatal rat fibroblasts
From the text: FIGS. 7A and 7B are photo micrographs showing the effect of retinoic acid on the distribution of the M6P/IGF2R in neonatal rat fibroblasts. […] The receptor was concentrated primarily in the perinuclear structure (probably the TGN area). […] Bar represents 4 μm.
To determine if RA affects intracellular trafficking of the M6P/IGF2R, distribution of the receptor in neonatal rat fibroblasts with or without RA treatment was visualized by immunofluorescence. The primary antibody used to target the receptor was a polyclonal anti-rat M6P/IGF2R (full length) rabbit IgG with high specificity. A non-immuno-rabbit IgG was used as a negative control. As indicated by fluorescence (FIGS. 7A and 7B), the M6P/IGF2R in the fibroblasts is normally concentrated primarily in the perinuclear structure (probably the TGN). […] This indicated a potentiating effect of RA on the trafficking of the M6P/IGF2R from the TGN to the endosomes/lysosomes.
as §1

T1 sequence (G3V824 36-2481): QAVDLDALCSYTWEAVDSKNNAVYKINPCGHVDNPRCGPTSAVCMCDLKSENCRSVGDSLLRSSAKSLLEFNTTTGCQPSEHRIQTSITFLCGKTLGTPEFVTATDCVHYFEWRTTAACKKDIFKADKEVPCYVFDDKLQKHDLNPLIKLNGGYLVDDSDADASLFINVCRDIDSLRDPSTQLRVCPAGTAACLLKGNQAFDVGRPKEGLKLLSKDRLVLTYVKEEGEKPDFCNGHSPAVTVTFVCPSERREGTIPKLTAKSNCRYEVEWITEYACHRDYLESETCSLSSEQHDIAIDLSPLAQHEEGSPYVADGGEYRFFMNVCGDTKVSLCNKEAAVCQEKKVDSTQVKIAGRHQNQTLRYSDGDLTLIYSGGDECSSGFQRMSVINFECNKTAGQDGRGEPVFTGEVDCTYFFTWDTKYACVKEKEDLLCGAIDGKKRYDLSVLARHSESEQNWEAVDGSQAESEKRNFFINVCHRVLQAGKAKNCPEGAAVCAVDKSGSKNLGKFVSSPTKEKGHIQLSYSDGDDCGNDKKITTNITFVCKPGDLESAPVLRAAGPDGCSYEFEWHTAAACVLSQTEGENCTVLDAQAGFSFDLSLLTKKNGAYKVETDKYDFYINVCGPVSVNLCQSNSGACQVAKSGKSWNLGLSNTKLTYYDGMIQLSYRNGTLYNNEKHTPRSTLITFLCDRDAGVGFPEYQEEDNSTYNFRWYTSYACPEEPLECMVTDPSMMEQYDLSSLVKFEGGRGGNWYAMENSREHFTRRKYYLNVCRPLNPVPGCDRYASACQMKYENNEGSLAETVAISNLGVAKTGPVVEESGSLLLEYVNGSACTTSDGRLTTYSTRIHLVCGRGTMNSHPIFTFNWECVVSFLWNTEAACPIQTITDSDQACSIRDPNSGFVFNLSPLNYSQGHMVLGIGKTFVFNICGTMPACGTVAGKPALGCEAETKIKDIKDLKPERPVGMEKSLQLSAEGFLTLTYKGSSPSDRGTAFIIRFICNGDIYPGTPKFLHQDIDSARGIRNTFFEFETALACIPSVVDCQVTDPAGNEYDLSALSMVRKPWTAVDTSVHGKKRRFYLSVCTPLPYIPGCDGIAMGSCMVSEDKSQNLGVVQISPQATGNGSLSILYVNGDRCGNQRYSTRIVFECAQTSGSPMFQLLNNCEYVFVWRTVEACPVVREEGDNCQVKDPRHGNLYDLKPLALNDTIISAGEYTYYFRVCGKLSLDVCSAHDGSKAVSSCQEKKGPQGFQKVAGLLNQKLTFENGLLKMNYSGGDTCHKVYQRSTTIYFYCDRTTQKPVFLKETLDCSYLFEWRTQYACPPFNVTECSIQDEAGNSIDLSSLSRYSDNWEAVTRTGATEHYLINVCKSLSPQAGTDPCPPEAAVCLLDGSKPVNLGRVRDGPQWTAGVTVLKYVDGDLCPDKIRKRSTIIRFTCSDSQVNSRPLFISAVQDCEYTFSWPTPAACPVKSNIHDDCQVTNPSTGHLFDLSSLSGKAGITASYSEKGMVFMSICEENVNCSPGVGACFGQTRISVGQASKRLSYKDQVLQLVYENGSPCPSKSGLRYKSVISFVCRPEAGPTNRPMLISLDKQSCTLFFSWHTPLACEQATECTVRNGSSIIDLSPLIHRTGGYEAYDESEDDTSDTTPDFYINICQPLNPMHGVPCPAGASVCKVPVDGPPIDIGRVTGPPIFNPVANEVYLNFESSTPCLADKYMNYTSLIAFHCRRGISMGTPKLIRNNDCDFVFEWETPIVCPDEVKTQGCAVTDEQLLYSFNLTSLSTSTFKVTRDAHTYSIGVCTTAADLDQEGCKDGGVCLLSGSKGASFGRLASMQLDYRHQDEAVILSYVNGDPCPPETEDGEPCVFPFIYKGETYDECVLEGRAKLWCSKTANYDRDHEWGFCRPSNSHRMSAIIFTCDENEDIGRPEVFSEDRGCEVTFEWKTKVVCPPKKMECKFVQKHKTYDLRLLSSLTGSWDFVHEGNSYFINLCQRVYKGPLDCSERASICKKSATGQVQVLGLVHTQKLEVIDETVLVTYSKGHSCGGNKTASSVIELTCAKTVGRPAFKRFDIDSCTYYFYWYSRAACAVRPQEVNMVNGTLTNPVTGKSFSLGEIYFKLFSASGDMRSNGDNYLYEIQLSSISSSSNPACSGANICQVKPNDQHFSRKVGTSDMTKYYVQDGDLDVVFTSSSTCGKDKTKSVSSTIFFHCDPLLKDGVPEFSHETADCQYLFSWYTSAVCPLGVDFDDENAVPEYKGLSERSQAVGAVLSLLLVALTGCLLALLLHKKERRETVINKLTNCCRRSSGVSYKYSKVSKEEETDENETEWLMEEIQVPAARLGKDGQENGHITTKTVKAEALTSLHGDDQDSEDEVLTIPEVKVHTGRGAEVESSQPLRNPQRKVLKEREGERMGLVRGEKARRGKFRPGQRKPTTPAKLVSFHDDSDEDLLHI
Sequence of M6P/IGF2R (G3V824 36-2481): as above

CC1=C(/C=C/C(C)=C/C=C/C(C)=C/C(=O)O)C(C)(C)CCC1 [RA, all-trans-retinoic acid]
Cell morphology and growth ([1]; 48 hours): marked alteration of cell morphology, and inhibition of growth | Apoptotic cells (Hoechst 33258 nuclear staining) ([1]; RA-treated cultures vs controls): many more apoptotic cells | Intracellular distribution of cathepsin B (neonatal rat fibroblasts): translocated from the perinuclear area to the cytoplasmic vesicles; also recorded: remarkable change in cathepsin B distribution | Inhibition of [3H]RA photolabeling/binding to M6P/IGF2R by nonradioactive competitor [2]: the radiolabel at the 300 kDa protein was lost; also recorded: inhibited the binding | Inhibition of [3H]RA photolabeling/binding to M6P/IGF2R by nonradioactive competitor ([2]; listed as all-trans-retinoic acid): abolished the labeling | Photoaffinity labeling of protein by [3H]RA ([2]; incubation with [3H]RA followed by photolysis): labeling of a doublet protein at 300 kDa; also recorded: intensively photolabeled | Intracellular distribution of M6P/IGF2R (M6P/IGF2R): translocated from perinuclear area to cytoplasmic vesicles; also recorded: movement of the receptors from the perinuclear area to the cytoplasmic vesicles

From US6596500B1, “Binding of retinoids to M6P/IGF-II receptor” (The General Hospital Corporation, priority 1998, dated 2003)
